Laboratory results from PubChem BioAssay AID623940 (Vanderbilt Specialized Chemistry Center, 2012).
pEC50: −log10 of the molar value. Activity calls are given as the source filed them.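 How the source made its calls: active means a response that changes with dose, reported with a potency and a percent of the peak acetylcholine response; inactive means the rest.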

Target: Muscarinic acetylcholine receptor M1 (Rattus norvegicus) (UniProt P08482)
Experiment: off-target potentiation of rat M1 ACh response – CHO cells, Fluo-4 calcium, ACh EC20, selectivity assay for M4 PAM optimization project, SAR follow-up (AID 623940)
Settings: CHO rat M1, Fluo-4 calcium

Chain of Muscarinic acetylcholine receptor M1 (Rattus norvegicus) (P08482 whole entry, looked up): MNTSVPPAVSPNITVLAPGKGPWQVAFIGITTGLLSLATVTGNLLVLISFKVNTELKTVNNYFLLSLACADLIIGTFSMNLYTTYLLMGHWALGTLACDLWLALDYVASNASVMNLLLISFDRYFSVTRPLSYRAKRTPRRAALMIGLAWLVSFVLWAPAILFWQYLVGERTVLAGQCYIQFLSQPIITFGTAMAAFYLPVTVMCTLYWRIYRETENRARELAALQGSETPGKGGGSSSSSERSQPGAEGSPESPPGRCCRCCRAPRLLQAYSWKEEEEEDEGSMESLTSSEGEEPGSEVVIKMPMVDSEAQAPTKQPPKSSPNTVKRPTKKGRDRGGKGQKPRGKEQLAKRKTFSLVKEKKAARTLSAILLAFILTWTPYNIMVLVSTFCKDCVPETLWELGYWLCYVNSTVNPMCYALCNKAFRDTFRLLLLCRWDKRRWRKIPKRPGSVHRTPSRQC

Row | outcome | pEC50 | Compound
1 | inactive | – | Cc1nc2sc(C(=O)NCc3cccnc3)c(N)c2c(C)c1Cl
2 | inactive | – | Cc1nc2sc(C(=O)NCc3ccc4c(c3)OCO4)c(N)c2c(C)c1Cl
3 | – | 6.03 | Cc1nc2sc(C(=O)NC3CC3)c(N)c2c(C)c1Cl
4 | inactive | – | Cc1nc2sc(C(=O)NCc3ccccc3)c(N)c2c(C)c1Cl
5 | inactive | – | Cc1nc2sc(C(=O)NCc3ccncc3)c(N)c2c(C)c1Cl

Same assay, conditions: CHO rat M1, Fluo-4 calcium, at 30 µM (top of the series)

Row | percent of ACh max response | Compound
6 | inactive | Cc1nc2sc(C(=O)NCc3ccncn3)c(N)c2c(C)c1Cl
7 | inactive | Cc1nc2sc(C(=O)NCc3cccc(F)c3F)c(N)c2c(C)c1Cl
8 | inactive | COc1ccc(C)c2sc(NC(=O)c3ccncc3)nc12
9 | inactive | Cc1nc2sc(C(=O)NCc3nccs3)c(N)c2c(C)c1Cl
10 | inactive | Cc1nc2sc(C(=O)NCCc3ccncc3)c(N)c2c(C)c1Cl
